US11981677B2, “Further substituted triazolo quinoxaline derivatives” (Grünenthal GmbH, priority 2018, dated 2024)

Each molecule was assayed against T1, Glucocorticoid Receptor (Homo sapiens, UniProt P04150) (assay: Agonistic mode of action on the glucocorticoid receptor (CHO-Gal4/GR luciferase reporter cell line)). Conditions: CHO-Gal4/GR luciferase reporter cells; observed in the agonistic assay or the antagonistic assay (mode not given); read-out: IC50 or EC50 range.
T1 construct: expressed in transfected cells
T1 sequence (P04150 524-758 limits assumed): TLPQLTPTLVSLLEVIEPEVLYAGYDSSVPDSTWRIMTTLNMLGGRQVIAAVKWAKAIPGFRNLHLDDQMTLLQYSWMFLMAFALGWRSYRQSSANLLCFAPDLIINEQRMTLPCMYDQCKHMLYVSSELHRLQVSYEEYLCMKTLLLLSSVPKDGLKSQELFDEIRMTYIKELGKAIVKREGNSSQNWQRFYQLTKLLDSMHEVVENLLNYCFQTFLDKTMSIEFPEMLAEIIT
Type: cell-based
Excerpt: Potential selective glucocorticoid receptor modulators of this intervention can be tested for modulation of the activity of the glucocorticoid receptor using cell-based assays. These assays involve a Chinese hamster ovary (CHO) cell line which contains fragments of the glucocorticoid receptor as well as fusion proteins. The glucocorticoid receptor fragments used are capable of binding the ligand (e.g. beclomethasone) to identify molecules that compete for binding with glucocorticoid receptor ligands. In more detail, the glucocorticoid receptor ligand binding domain is fused to the DNA binding domain (DBD) of the transcriptionfactor GAL4 (GAL4 DBD-GR) and is stably integrated into a CHO cell line containing a GAL4-UAS-Luciferase reporter construct. […] After cell lysis the luminescence that is produced by luciferase after addition of the substrate is detected and EC50 or IC50 values can be calculated. Engagement of molecules which induce gene expression via glucocortocoid receptor binding to the DNA leads to expression of the luciferase gene under the control of the fusion protein GAL4 DBD-GR and therefore to a dose-dependent increase of the luminescence signal. Binding of molecules which repress beclomethasone-induced gene expression of the luciferase gene under the control of the fusion protein GAL4 DBD-GR leads to a dose-dependent reduction of the luminescence signal.
The reporter cell line CHO-Gal4/GR consisted of a chinese hamster ovary (CHO) cell line (Leibniz Institute DSMZ—German Collection of Microorganisms and Cell Cultures GmbH: ACC-110) containing a firefly luciferase gene under the control of the GR ligand binding domain fused to the DNA binding domain (DBD) of GAL4 (GAL4 DBD-GR) stably integrated into CHO cells. This cell line was established by stable transfection of CHO cells with a GAL4-UAS-Luciferase reporter construct. In a subsequent step the ligand binding domain of the GR cloned into pIRES2-EGFP-GAL4 containing the DNA binding domain of GAL4 from pFA-AT2 was transfected. This fusion construct activated firefly luciferase expression under the control of a multimerized GAL4 upstream activation sequence (UAS). The signal of the emitted luminescence was recorded by the FLIPR^TETRA. This allowed for specific detection of ligand-induced activation of the GR and therefore for the identification of compounds with agonistic properties. The GAL4/UAS reporter was premixed with a vector that constitutively expressed Renilla luciferase, which served as an internal positive control for transfection efficiency.
The complete culture medium for the assay was: • DMEM F-12 (1:1) MIXTURE (LONZA cat. No: BE04-687F/U1) 500 mL • 5 mL of 100 mM Sodium Pyruvate (LONZA cat. No: BE12-115E) • 25 mL of 7.5% Sodium Bicarbonate (LONZA cat. No BE17-613E) • 6.5 mL of 1 M Hepes (LONZA cat. No: BE17-737E) • 5 mL of 100× Penicillin/Streptomycin (LONZA cat. No DE17-602E) • 50 mL of Fetal Bovine Serum (Euroclone cat. No ECS 0180L) • 0.25 mL of 10 mg/mL Puromycin (InvivoGen cat.: ant-pr-1) • 0.5 mL of 100 mg/mL Zeocin (InvivoGen cat.: ant-zn-1)
Cryo-preserved CHO-Gal4/GR cells were suspended in complete medium and 5000 cells/25 μl/well were seeded into the wells of 384-well polystyrene assay plates (Thermo Scientific, cat. #4332) and cultured at 37° C., 5% CO2 and 95% humidity. After 24 hours growth medium was carefully removed and replaced by 30111 Opti-MEM (GIBCO, cat. #31985062) as assay buffer. To test the compounds an 8-point half-log compound dilution curve was generated in 100% DMSO starting from a 2 mM stock and compounds were then diluted 1:50 in Opti-MEM. 10111 of compounds were then added to the wells containing 30 μl Opti-MEM resulting in a final assay concentration range from 10 μM to 0.003 μM in 0.5% DMSO. Compounds were tested at 8 concentrations in quadruplicate data points. […] Finally, cells were lysed with 20 μl of Triton/Luciferin solution and the signal of the emitted luminescence was recorded at the FLIPR^TETRA for 2 minutes. […]
`COc1c(-c2cccc3c2ccn3C2CC2)cc(F)c2c1-n1c(C)nnc1C(C)(C)N2` [Example 511, 8-(1-Cyclopropyl-1H-indol-4-yl)-6-fluoro-9-methoxy-1,4,4-trimethyl-5H-[1,2,4]triazolo[4,3-a]quinoxaline] showed an IC50 or EC50 (antagonist or agonist mode, not stated per compound) of 100 to 1000 nM. In the case of `Cc1c(-c2cccc3[nH]ccc23)cc(F)c2c1-n1c(C)nnc1C(C)(C)N2` [Example 468, 6-Fluoro-8-(1H-indol-4-yl)-1,4,4,9-tetramethyl-5H-[1,2,4]triazolo[4,3-a]quinoxaline], the IC50 or EC50 (antagonist or agonist mode, not stated per compound) is reported as < 100 nM. In the case of `COc1c(-c2cccc3c2ccn3S(C)(=O)=O)cc(F)c2c1-n1c(C)nnc1C(C)(C)N2` [Example 57, 6-Fluoro-9-methoxy-1,4,4-trimethyl-8-(1-methylsulfonyl-1H-indol-4-yl)-5H-[1,2,4]triazolo[4,3-a]quinoxaline], the IC50 or EC50 (antagonist or agonist mode, not stated per compound) is reported as 100 to 1000 nM. With `Cc1c(-c2cccc3c(C)c[nH]c23)c(F)c(F)c2c1-n1c(C)nnc1C(C)(C)N2` [Example 513, 6,7-Difluoro-1,4,4,9-tetramethyl-8-(3-methyl-1H-indol-7-yl)-5H-[1,2,4]triazolo[4,3-a]quinoxaline] the IC50 or EC50 (antagonist or agonist mode, not stated per compound) was 100 to 1000 nM. In the case of `CCc1nnc2n1-c1c(C)c(-c3cccc4c3ccn4S(C)(=O)=O)cc(F)c1NC2(C)C` [Example 308, 1-Ethyl-6-fluoro-4,4,9-trimethyl-8-(1-methylsulfonyl-1H-indol-4-yl)-5H-[1,2,4]triazolo[4,3-a]quinoxaline], the IC50 or EC50 (antagonist or agonist mode, not stated per compound) is reported as < 100 nM. Molecule `COc1c(-c2cccc3c2ccn3S(=O)(=O)C2CC2)cc(F)c2c1-n1c(C)nnc1C(C)(C)N2` [Example 505, 8-[1-(Cyclopropylsulfonyl)-1H-indol-4-yl]-6-fluoro-9-methoxy-1,4,4-trimethyl-5H-[1,2,4]triazolo[4,3-a]quinoxaline] has an IC50 or EC50 (antagonist or agonist mode, not stated per compound) of 100 to 1000 nM. `Cc1c(-c2cccc3c2ccn3CCO)cc(F)c2c1-n1c(C)nnc1C(C)(C)N2` [Example 301, 2-[4-(6-Fluoro-1,4,4,9-tetramethyl-5H-[1,2,4]triazolo[4,3-a]quinoxalin-8-yl)-1H-indol-1-yl]-EtOH] showed an IC50 or EC50 (antagonist or agonist mode, not stated per compound) of 100 to 1000 nM. With `Cc1c(-c2cccc3c2ccn3S(=O)(=O)CF)cc(F)c2c1-n1c(C)nnc1C(C)(C)N2` [Example 349, 6-Fluoro-8-[1-(fluoro-methylsulfonyl)-1H-indol-4-yl]-1,4,4,9-tetramethyl-5H-[1,2,4]triazolo[4,3-a]quinoxaline] the IC50 or EC50 (antagonist or agonist mode, not stated per compound) was 100 to 1000 nM. In the case of `CCc1nnc2n1-c1c(C)c(-c3cc(F)cc4c3ccn4S(C)(=O)=O)cc(F)c1NC2(C)C` [Example 323, 1-Ethyl-6-fluoro-8-(6-fluoro-1-methylsulfonyl-1H-indol-4-yl)-4,4,9-trimethyl-5H-[1,2,4]triazolo[4,3-a]quinoxaline], the IC50 or EC50 (antagonist or agonist mode, not stated per compound) is reported as 100 to 1000 nM. Work on `COc1c(-c2cc(F)cc3c2ccn3S(C)(=O)=O)cc(F)c2c1-n1c(C3CC3)nnc1C(C)(C)N2` [Example 59, 1-Cyclopropyl-6-fluoro-8-(6-fluoro-1-methylsulfonyl-1H-indol-4-yl)-9-methoxy-4,4-dimethyl-5H-[1,2,4]triazolo[4,3-a]quinoxaline] yielded an IC50 or EC50 (antagonist or agonist mode, not stated per compound) of 1000 to 15000 nM. `Cc1c(-c2cc(F)cc3c(C)c[nH]c23)c(F)c(F)c2c1-n1c(C)nnc1C(C)(C)N2` [Example 514, 6,7-Difluoro-8-(5-fluoro-3-methyl-1H-indol-7-yl)-1,4,4,9-tetramethyl-5H-[1,2,4]triazolo[4,3-a]quinoxaline] was tested, and the IC50 or EC50 (antagonist or agonist mode, not stated per compound) was < 100 nM. `Cc1c(-c2cc(F)cc3c(C)c[nH]c23)cc(F)c2c1-n1c(C3CC3)nnc1C(C)(C)N2` [Example 66, 1-Cyclopropyl-6-fluoro-8-(5-fluoro-3-methyl-1H-indol-7-yl)-4,4,9-trimethyl-5H-[1,2,4]triazolo[4,3-a]quinoxaline] was tested, and the IC50 or EC50 (antagonist or agonist mode, not stated per compound) was 100 to 1000 nM. With `Cc1c(-c2cccc3c2cnn3S(C)(=O)=O)c(F)c(Cl)c2c1-n1c(C)nnc1C(C)(C)N2` [Example 509, 6-Chloro-7-fluoro-1,4,4,9-tetramethyl-8-(1-methylsulfonyl-1H-indazol-4-yl)-5H-[1,2,4]triazolo[4,3-a]quinoxaline] the IC50 or EC50 (antagonist or agonist mode, not stated per compound) was 100 to 1000 nM. With `Cc1n[nH]c2c(-c3cc(F)c4c(c3C(F)F)-n3c(C)nnc3C(C)(C)N4)cccc12` [Example 466, 9-(difluoromethyl)-6-fluoro-1,4,4-trimethyl-8-(3-methyl-1H-indazol-7-yl)-4,5-dihydro-[1,2,4]triazolo[4,3-a]quinoxaline] the IC50 or EC50 (antagonist or agonist mode, not stated per compound) was 100 to 1000 nM. For `Cc1c(-c2cccc3c2ccn3S(C)(=O)=O)c(F)c(Cl)c2c1-n1c(C)nnc1C(C)(C)N2` [Example 502, 6-Chloro-7-fluoro-1,4,4,9-tetramethyl-8-(1-methylsulfonyl-1H-indol-4-yl)-5H-[1,2,4]triazolo[4,3-a]quinoxaline], the IC50 or EC50 (antagonist or agonist mode, not stated per compound) was < 100 nM. In the case of `Cc1c(-c2cc(F)cc3c2ccn3CCO)cc(Cl)c2c1-n1c(C)nnc1C(C)(C)N2` [Example 463, 2-[4-(6-Chloro-1,4,4,9-tetramethyl-5H-[1,2,4]triazolo[4,3-a]quinoxalin-8-yl)-6-fluoro-1H-indol-1-yl]-EtOH], the IC50 or EC50 (antagonist or agonist mode, not stated per compound) is reported as < 100 nM. `Cc1cc(-c2cc(F)c3c(c2C)-n2c(C)nnc2C(C)(C)N3)c2ccn(S(C)(=O)=O)c2c1` [Example 475, 6-Fluoro-1,4,4,9-tetramethyl-8-(6-methyl-1-methylsulfonyl-1H-indol-4-yl)-5H-[1,2,4]triazolo[4,3-a]quinoxaline] was tested, and the IC50 or EC50 (antagonist or agonist mode, not stated per compound) was 100 to 1000 nM. `COc1c(-c2cc(F)cc3c2cnn3S(C)(=O)=O)cc(Cl)c2c1-n1c(C)nnc1C(C)(C)N2` [Example 493, 6-Chloro-8-(6-fluoro-1-methylsulfonyl-1H-indazol-4-yl)-9-methoxy-1,4,4-trimethyl-5H-[1,2,4]triazolo[4,3-a]quinoxaline] showed an IC50 or EC50 (antagonist or agonist mode, not stated per compound) of 100 to 1000 nM. Molecule `COc1cc(-c2cc(F)c3c(c2C)-n2c(C)nnc2C(C)(C)N3)c2ccn(S(C)(=O)=O)c2c1` [Example 523, 6-Fluoro-8-(6-methoxy-1-methylsulfonyl-1H-indol-4-yl)-1,4,4,9-tetramethyl-5H-[1,2,4]triazolo[4,3-a]quinoxaline] has an IC50 or EC50 (antagonist or agonist mode, not stated per compound) of 100 to 1000 nM. Molecule `Cc1c(-c2ccc(F)c3[nH]ccc23)cc(F)c2c1-n1c(C)nnc1C(C)(C)N2` [Example 490, 6-fluoro-8-(7-fluoro-1H-indol-4-yl)-1,4,4,9-tetramethyl-4,5-dihydro-[1,2,4]triazolo[4,3-a]quinoxaline] has an IC50 or EC50 (antagonist or agonist mode, not stated per compound) of 100 to 1000 nM. `COc1c(-c2cccc3[nH]ccc23)cc(F)c2c1-n1c(C)nnc1C(C)(C)N2` [Example 469, 6-Fluoro-8-(1H-indol-4-yl)-9-methoxy-1,4,4-trimethyl-5H-[1,2,4]triazolo[4,3-a]quinoxaline] gave an IC50 or EC50 (antagonist or agonist mode, not stated per compound) of 100 to 1000 nM. With `Cc1c(-c2ccc(C#N)c3[nH]ccc23)c(F)c(F)c2c1-n1c(C)nnc1C(C)(C)N2` [Example 520, 4-(6,7-difluoro-1,4,4,9-tetramethyl-4,5-dihydro-[1,2,4]triazolo[4,3-a]quinoxalin-8-yl)-1H-indole-7-carbonitrile] the IC50 or EC50 (antagonist or agonist mode, not stated per compound) was 100 to 1000 nM.
